According to patent US20100105103A1, “ALCOHOL TOLERANT ESCHERICHIA COLI AND METHODS OF PREPARATION THEREOF” (NATIONAL TAIWAN UNIVERSITY, priority 2008, published 2010):

Experiments:
[1] = test system: E. coli JH007 (ydhF- mutant overexpressing PhoH); assay: Growth curve of JH007 strain with various concentrations of alcohols (OD595); type: cell-based, Escherichia coli; settings: for alcohol concentration at which growth of JH007 was inhibited: JH007, IPTG-induced, LB medium, 37° C., OD595
Method: (§1) After 2 h of induction, the cultures were diluted to 0.35 OD595 in a fresh LB medium supplemented with kanamycin and 50 μg/ml of chloraphenicol, with the addition of 0-18% ethanol, 0-5% 1-propanol, 0-5% iso-propanol, 0-7% 1-butanol, and 0-7% iso-butanol in triplicate.
Referring to FIG. 7, cell growth condition of JH007 strain was monitored with OD595 with the changes of cell turbidities.

[2] = test system: E. coli JH016 (potG- mutant overexpressing Hmp); assay: Growth curve of JH016 strain with various concentrations of alcohols (OD595); type: cell-based, Escherichia coli; settings: for alcohol concentration at which growth of JH016 was inhibited: JH016, OD595
Method: as §1
(§2) Growth of JH016 was inhibited by 1-butanol at concentrations at least 2.5% (v/v), isobutanol at least 4%, 1-propanol at least 5%, isopropanol at least 5%, or ethanol at least 10%. And the growth of JH017 was inhibited by 1-butanol at concentrations at least 2% (v/v), isobutanol at least 3.5%, 1-propanol at least 5%, isopropanol at least 5%, or ethanol at least 12%. The abovementioned concentration of alcohol would for sure inhibit the growth of wild type E. coli.

[3] = test system: E. coli JH017 (potG- mutant overexpressing YqhD); assay: Growth curve of JH017 strain with various concentrations of alcohols (OD595); type: cell-based, Escherichia coli
Method: as §1, §2

[4] = test system: E. coli wild-type strain BW25113; settings: wild type E. coli BW25113, LB medium, OD600
Method: E. coli wild-type strain BW25113 was cultured overnight and then inoculated into a fresh LB medium containing 0-10% (v/v) of 1-butanol. Cells were cultivated with shaking and the optical density at 600 nm was measured every 15 minutes.

[5] = test system: E. coli JH007; settings: JH007, 2% v/v 1-butanol, 4 h, IPTG-induced vs uninduced
Method: These 18 strains were cultivated overnight then inoculated into LB media supplemented with 30 μg/ml of kanamycin and 50 μg/ml of chloraphenicol. IPTG were added into the media at the final concentration of 0.1 mM. […] Cells were incubated at 37° C. with shaking and the optical density was measured at the beginning and after 4 h. The survival rates were calculated using the following formula.
Survival rate=difference of OD595 between mutants with IPTG induced (4 h-0 h)/difference of OD595 between mutants without IPTG induced (4 h-0 h)×100%

[6] = test system: wild type E. coli; settings: conventional fermentation process; cited from earlier work

Molecule	alcohol concentration at which growth of JH007 was inhibited [1]	alcohol concentration at which growth of JH016 was inhibited [2]	alcohol concentration at which growth of JH017 was inhibited [3]	tolerance of ethanol concentration (up to) ([2]; JH016)	concentration of 1-butanol at which growth was almost completely inhibited [4]	tolerance of 1-butanol concentration (up to) ([1]; JH007)	1-butanol tolerance (survival rate) relative to control [5] [fold]	concentration of 1-butanol at which growth was inhibited [6] [%]
CCCO [1-propanol]	at least 6 % (v/v)	–	–	–	–	–	–	–
CC(C)CO [isobutanol]	at least 3.5 % (v/v)	at least 4 % (v/v)	at least 3.5 % (v/v)	–	–	–	–	–
CCO [ethanol]	–	at least 10 % (v/v)	at least 12 % (v/v)	up to 12 % (v/v)	–	–	–	–
1-butanol	at least 5 % (v/v)	at least 2.5 % (v/v)	at least 2 % (v/v)	–	≥ 1.5 % (v/v)	up to 5 % (v/v)	5.5	1
